This passage reports IC50 results from ChEMBL document CHEMBL1140912, “Extra binding region induced by non-zinc chelating inhibitors into the S1' subsite of matrix metalloproteinase 8 (MMP-8)” (J Med Chem, 2009).

As usually defined, the pIC50 is the negative decadic logarithm of the IC50, by convention in mol/L.

The target of assay [1] is Stromelysin-1 (Homo sapiens, UniProt P08254). In words: Inhibition of human recombinant MMP3.
Assay [2] addresses T1, Matrilysin (Homo sapiens, UniProt P09237).
T1 sequence (P09237 whole entry): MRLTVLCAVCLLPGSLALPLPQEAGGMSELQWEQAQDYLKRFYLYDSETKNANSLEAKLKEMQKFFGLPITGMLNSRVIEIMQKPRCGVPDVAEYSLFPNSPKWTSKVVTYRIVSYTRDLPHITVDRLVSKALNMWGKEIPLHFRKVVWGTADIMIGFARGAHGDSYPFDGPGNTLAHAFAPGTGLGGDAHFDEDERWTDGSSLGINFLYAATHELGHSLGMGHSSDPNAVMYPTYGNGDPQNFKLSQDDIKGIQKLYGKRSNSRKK
Briefly: Inhibition of human recombinant MMP7.

The target of assay [3] is Matrix metalloproteinase-9 (Homo sapiens, UniProt P14780). In words: Inhibition of human recombinant MMP9.
Sequence of Matrix metalloproteinase-9 (P14780 whole entry): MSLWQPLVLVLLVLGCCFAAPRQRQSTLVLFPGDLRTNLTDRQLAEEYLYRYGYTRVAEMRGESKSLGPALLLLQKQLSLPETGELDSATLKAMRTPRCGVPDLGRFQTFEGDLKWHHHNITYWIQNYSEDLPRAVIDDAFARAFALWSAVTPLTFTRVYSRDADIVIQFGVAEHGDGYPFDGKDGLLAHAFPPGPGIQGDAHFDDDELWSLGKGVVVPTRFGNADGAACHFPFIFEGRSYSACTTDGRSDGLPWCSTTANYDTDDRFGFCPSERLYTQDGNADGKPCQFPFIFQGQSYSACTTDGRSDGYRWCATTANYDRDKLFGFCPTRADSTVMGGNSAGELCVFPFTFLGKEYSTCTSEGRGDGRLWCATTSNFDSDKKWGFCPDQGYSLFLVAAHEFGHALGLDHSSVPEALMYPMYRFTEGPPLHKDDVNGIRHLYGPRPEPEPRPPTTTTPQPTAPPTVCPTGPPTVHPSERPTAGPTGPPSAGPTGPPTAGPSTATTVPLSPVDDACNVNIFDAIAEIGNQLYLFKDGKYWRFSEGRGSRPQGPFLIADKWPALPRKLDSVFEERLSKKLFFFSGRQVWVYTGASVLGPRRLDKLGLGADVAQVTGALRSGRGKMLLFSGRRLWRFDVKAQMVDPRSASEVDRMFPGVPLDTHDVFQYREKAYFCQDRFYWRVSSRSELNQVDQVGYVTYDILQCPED
For assay [4], the target named is T2, Interstitial collagenase (Homo sapiens, UniProt P03956).
T2 sequence (P03956 whole entry): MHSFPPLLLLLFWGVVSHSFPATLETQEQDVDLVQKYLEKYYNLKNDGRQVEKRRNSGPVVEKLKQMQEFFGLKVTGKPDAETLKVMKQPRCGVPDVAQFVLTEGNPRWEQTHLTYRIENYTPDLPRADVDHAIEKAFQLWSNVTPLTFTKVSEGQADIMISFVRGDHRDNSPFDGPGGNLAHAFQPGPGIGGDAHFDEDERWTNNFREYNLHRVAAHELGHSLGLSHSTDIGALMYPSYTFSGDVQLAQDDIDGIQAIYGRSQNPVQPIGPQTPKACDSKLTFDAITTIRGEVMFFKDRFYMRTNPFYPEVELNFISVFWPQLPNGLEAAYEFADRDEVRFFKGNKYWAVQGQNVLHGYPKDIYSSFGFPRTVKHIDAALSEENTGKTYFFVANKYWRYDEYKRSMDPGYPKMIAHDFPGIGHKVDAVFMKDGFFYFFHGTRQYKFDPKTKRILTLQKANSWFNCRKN
Briefly: Inhibition of human recombinant MMP1.

Assay [5] has as its target Collagenase 3 (Homo sapiens, UniProt P45452). In words: Inhibition of human recombinant MMP13.
For assay [6], the target named is Matrix metalloproteinase-14 (Homo sapiens, UniProt P50281). Briefly: Inhibition of human recombinant MMP14.
The target in assay [7] is 72 kDa type IV collagenase (Homo sapiens, UniProt P08253). In words: Inhibition of human recombinant MMP2.
Sequence of 72 kDa type IV collagenase (P08253 whole entry): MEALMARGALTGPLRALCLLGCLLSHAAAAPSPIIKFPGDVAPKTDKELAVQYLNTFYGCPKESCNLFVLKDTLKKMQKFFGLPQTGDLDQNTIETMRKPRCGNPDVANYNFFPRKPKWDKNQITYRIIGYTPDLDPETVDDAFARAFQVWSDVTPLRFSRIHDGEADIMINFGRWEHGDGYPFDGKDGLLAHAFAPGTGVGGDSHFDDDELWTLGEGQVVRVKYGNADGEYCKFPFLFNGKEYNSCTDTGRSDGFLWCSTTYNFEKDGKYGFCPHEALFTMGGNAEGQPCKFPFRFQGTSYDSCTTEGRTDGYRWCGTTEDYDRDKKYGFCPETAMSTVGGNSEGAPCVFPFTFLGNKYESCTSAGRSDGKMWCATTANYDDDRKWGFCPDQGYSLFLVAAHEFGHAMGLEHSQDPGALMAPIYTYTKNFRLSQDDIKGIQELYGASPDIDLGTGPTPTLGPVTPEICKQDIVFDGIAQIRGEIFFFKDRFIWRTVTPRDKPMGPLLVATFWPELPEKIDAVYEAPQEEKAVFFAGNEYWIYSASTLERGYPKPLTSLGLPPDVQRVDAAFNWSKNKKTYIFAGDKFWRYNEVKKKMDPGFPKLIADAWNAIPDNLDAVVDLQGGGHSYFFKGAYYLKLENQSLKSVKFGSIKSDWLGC
Assay [8] concerns the target Macrophage metalloelastase (Homo sapiens, UniProt P39900). Briefly: Inhibition of human recombinant MMP12.

pIC50: −log10 of the molar value.

Sequence of Stromelysin-1 (P08254 whole entry): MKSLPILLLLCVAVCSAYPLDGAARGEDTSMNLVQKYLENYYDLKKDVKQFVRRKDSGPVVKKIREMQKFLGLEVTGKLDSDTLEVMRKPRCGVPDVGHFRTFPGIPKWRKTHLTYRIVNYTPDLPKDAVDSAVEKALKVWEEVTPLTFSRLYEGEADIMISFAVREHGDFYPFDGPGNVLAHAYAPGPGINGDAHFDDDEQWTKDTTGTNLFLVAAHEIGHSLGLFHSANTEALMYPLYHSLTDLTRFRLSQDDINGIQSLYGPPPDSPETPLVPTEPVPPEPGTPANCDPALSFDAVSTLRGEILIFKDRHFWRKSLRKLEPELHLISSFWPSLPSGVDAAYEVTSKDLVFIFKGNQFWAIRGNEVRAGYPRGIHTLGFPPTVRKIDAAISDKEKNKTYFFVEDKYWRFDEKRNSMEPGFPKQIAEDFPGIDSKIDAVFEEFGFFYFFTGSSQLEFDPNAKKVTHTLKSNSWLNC
Sequence of Macrophage metalloelastase (P39900 whole entry): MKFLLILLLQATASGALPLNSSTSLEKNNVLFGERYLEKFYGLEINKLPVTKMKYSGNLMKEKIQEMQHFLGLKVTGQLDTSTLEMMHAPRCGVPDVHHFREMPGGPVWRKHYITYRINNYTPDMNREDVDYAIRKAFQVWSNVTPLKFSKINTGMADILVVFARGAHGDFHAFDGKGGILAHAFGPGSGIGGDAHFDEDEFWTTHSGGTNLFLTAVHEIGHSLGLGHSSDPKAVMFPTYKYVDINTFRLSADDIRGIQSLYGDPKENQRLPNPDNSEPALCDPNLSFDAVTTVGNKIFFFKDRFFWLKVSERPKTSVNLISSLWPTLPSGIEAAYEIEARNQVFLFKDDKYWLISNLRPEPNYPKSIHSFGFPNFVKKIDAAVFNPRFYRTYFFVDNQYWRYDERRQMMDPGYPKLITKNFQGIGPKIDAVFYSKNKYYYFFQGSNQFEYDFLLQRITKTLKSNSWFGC

With `NC(=O)CC1CCCc2sc3nc(C(=O)NCc4ccc5c(c4)NC(=O)CO5)[nH]c(=O)c3c21` (racemic), the pIC50 in assay [1] was less than 5.60; in assay [2] it was less than 5.00; in assay [3], less than 5.00; in assay [4], less than 5.00; in assay [5], greater than 7.60; in assay [6] it was less than 5.00. The pIC50 in assay [7] and in assay [8] was less than 5.00 throughout.
